The structures appear in SMILES notation. Some results are limits rather than exact numbers.

The IC50 is the concentration that inhibits the measured activity by half.

The assay addresses T1, Tyrosine-protein phosphatase non-receptor type 11 (Homo sapiens, UniProt Q06124).
T1 sequence (Q06124 whole entry): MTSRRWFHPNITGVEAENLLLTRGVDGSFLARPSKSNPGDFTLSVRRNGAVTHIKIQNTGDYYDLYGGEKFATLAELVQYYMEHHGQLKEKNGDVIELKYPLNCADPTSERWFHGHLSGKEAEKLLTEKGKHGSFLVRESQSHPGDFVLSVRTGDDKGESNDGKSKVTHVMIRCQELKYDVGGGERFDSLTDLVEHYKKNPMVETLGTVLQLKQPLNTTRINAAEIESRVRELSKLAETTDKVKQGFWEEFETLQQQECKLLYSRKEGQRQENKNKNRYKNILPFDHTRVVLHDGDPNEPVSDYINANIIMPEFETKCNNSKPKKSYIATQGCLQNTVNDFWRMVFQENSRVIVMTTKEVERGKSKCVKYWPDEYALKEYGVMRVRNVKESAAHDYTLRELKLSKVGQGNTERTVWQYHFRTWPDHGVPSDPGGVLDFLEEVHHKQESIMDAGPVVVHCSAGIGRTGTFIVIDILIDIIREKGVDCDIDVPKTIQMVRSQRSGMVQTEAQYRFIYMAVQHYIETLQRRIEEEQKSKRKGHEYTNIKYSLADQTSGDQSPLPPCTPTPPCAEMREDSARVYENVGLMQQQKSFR
The assay is described as follows: Biochemical Assay: The inhibition of SHP2 by compounds of the invention was monitored using the surrogate substrate DiFMUP after protein activation by a peptide bearing two appropriately spaced phosphotyrosine. Full length SHP2 protein (Recombinant HumanSHP-2, E. coli derived Ser2Arg593, N-terminal 6His tag from R&D systems; […]) was incubated with activating peptide, IRSI_2pY (New England Peptide, 140 nM) and DiFMUP (molecular probes, 80 uM) at RT in buffer (HEPES pH 7.2 60 mM, DDT 5 mM, KCl 75 mM, NaCl 75 mM, EDTA 1 mM, Tween 20 0.05%) in presence of compound (10 concentrations range, top concentration 50 Î¼M) for 60 min. The generation of the DiFMU product by activated SHP2 was monitored through Fluorescence measurement with a PerkinElmer Envision reader.
For the molecule `C[C@]12CCCCC[C@](C)(CN(c3nc(N)c(-c4cccc(Cl)c4Cl)c(C(N)=O)n3)C1)[C@H]2N`, the IC50 is greater than 10 µM. Consider `CC1(N)CCN(c2nc(Cl)c(-c3cccc(Cl)c3Cl)c(C(N)=O)n2)CC1`, for which the IC50 was 0.06 µM. Take `CC1(N)CCN(c2ncc(-c3cccc(Cl)c3Cl)c(C(N)=O)n2)CC1`: the 50% inhibitory concentration (IC50) is 3.7 µM.

The record behind these values is ChEMBL document CHEMBL5728520, “Carboxamide-pyrimidine derivatives as SHP2 antagonists” (2021).
